# Measured values: patent publication US8993602B2, “Benzoic acid salt of otamixaban” (Sanofi, priority 2011, dated 2015)
# Read-outs that look alike come from different tables or passages of the source.
# Assays:
# [1] = test system: acute coronary syndrome; settings: humans, recent clinical findings; cited from earlier work
# [2] = target: factor Xa assembled in the prothrombinase complex (Factor Xa, Factor Va, calcium and phospholipid) (Homo sapiens, UniProt P00742); settings: cited from earlier work
# [3] = target: T1, factor Xa (Homo sapiens, UniProt P00742); settings: patients with stable coronary artery disease on usual comedication, some with mild renal impairment; cited from earlier work
# T1 construct: from tissue; host or cells: blood of patients (in vivo; result quoted from Hinder et al. 2006)
# [4] = test system: models of thrombosis; settings: rodent, canine and porcine models; cited from earlier work
# [5] = target: free factor Xa (Homo sapiens, UniProt P00742); settings: cited from earlier work
# [6] = test system: prothrombin fragments 1+2; settings: highest dose regimen, versus unfractionated heparin; cited from earlier work
# [7] = for hygroscopicity (absorption or adsorption of water molecules from the surrounding environment): result in words
# Protocol: Moreover, crystalline benzoic acid salt of Formula I may also be characterized by its dynamic vapor sorption (DVS) water vapor sorption and desorption isotherms measured at 25° C. Before starting the sorption cycle the crystalline salt of Formula I sample is treated with dry nitrogen gas.
# Moisture sorption/desorption isotherms were recorded on a DVS-1000 from Surface Measurement Systems. […] Typical total measurement times for both cycles were about 20 to 30 hours.
# Chain of factor Xa assembled in the prothrombinase complex (Factor Xa, Factor Va, calcium and phospholipid) (P00742 235-488 limits assumed): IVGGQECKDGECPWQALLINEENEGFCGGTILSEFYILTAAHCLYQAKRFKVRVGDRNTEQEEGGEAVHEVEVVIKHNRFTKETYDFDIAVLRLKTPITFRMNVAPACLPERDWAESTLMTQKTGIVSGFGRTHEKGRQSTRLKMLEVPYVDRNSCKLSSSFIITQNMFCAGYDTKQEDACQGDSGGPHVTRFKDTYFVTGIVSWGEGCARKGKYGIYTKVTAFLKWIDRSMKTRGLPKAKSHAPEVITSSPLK
# Chain of factor Xa assembled in the prothrombinase complex (Factor Xa, Factor Va, calcium and phospholipid) (P00742 41-179 partner limits assumed): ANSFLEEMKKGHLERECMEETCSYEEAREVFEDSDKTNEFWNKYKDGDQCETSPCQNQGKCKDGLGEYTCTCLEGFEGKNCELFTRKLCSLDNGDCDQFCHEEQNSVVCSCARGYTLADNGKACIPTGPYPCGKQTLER
# Chain of factor Xa assembled in the prothrombinase complex (Factor Xa, Factor Va, calcium and phospholipid) (P12259 29-737 partner limits assumed): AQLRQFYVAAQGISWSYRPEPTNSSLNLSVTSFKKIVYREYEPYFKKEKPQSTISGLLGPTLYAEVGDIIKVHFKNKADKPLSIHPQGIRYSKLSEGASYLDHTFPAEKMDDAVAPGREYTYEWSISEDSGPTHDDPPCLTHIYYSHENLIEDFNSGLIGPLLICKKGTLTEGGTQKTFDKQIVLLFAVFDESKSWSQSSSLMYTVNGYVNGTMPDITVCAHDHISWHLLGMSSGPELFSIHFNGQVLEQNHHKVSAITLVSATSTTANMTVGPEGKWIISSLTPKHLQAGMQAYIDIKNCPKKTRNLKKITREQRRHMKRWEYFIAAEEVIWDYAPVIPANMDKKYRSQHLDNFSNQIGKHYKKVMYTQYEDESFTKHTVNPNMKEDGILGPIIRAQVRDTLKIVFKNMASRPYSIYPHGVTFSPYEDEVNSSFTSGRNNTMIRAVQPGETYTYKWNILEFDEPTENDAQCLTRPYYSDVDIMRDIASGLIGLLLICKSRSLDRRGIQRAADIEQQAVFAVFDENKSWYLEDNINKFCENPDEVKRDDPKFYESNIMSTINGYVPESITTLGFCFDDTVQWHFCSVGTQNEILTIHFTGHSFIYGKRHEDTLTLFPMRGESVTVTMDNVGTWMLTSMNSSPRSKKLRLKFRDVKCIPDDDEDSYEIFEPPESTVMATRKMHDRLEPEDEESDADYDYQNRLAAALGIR
# Chain of factor Xa assembled in the prothrombinase complex (Factor Xa, Factor Va, calcium and phospholipid) (P12259 1574-2224 partner limits assumed): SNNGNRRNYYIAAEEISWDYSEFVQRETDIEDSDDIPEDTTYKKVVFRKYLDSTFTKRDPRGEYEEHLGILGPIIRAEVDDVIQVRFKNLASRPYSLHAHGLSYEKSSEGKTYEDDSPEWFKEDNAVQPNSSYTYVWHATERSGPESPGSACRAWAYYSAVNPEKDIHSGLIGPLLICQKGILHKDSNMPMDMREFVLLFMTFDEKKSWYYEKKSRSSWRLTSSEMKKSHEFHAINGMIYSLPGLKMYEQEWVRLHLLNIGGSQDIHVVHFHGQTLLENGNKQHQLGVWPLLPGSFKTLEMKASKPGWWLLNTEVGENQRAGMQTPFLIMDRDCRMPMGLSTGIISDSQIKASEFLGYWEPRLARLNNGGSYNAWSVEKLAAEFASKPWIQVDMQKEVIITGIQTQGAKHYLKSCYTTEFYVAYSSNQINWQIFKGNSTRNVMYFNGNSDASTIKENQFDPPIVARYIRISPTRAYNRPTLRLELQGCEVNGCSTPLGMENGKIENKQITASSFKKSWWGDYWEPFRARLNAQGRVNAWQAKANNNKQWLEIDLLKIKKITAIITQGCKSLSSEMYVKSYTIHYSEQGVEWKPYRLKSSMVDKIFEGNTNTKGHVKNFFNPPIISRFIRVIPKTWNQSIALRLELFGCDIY
# Chain of free factor Xa (P00742 235-488 limits assumed): as the sequence (P00742 235-488 limits assumed) above
# Chain of free factor Xa (P00742 41-179 partner limits assumed): as the sequence (P00742 41-179 partner limits assumed) above
# T1 sequence (P00742 235-488 limits assumed): as the sequence (P00742 235-488 limits assumed) above
# T1 sequence (P00742 41-179 partner limits assumed): as the sequence (P00742 41-179 partner limits assumed) above
compound,measurement,setting,value
"COC(=O)[C@H](Cc1cccc(C(=N)N)c1)[C@@H](C)NC(=O)c1ccc(-c2cc[n+]([O-])cc2)cc1 (mixture of isomers) [Otamixaban, Methyl(2R,3R)-2-{3-[amino(imino)methyl]benzyl}-3-{[4-(1-oxidopyridin-4-yl)benzoyl]amino}butanoate]",clinical efficacy,[1],efficacious
same,clinical safety and tolerability,[1],safe and well tolerated
same,inhibition of factor Xa assembled in the prothrombinase complex,[2],inhibited
same,factor Xa inhibition in patients,[3],"dose-dependent, rapid direct factor Xa inhibition"
same,efficacy in models of thrombosis,[4],highly efficacious
same,inhibition of free factor Xa,[5],inhibited
same,reduction of prothrombin fragments 1+2,[6],reduced prothrombin fragments 1+2 significantly more than unfractionated heparin
"CCC(C)O.COC(=O)[C@H](Cc1cccc(C(=N)N)c1)[C@@H](C)NC(=O)c1ccc(-c2cc[n+]([O-])cc2)cc1.COC(=O)[C@H](Cc1cccc(C(=N)N)c1)[C@@H](C)NC(=O)c1ccc(-c2cc[n+]([O-])cc2)cc1.Cl.Cl [Methyl(2R,3R)-2-{3-[amino(imino)methyl]benzyl}-3-{[4-(1-oxidopyridin-4-yl)benzoyl]amino}butanoate monohydrochloride-hemi-2-butanol-solvate]",Change In Mass (%) Desorption,"[7]; Cycle 1, Target RH 0.0%",0.35%
same,Change In Mass (%) Sorption,"[7]; Cycle 1, Target RH 0.0%",0.00%
same,Change In Mass (%) Desorption,"[7]; Cycle 1, Target RH 10.0%",3.33%
same,Change In Mass (%) Hysteresis,"[7]; Cycle 1, Target RH 10.0%",2.54%
same,Change In Mass (%) Sorption,"[7]; Cycle 1, Target RH 10.0%",0.79%
same,Change In Mass (%) Desorption,"[7]; Cycle 1, Target RH 20.0%",5.29%
same,Change In Mass (%) Hysteresis,"[7]; Cycle 1, Target RH 20.0%",4.01%
same,Change In Mass (%) Sorption,"[7]; Cycle 1, Target RH 20.0%",1.28%
same,Change In Mass (%) Desorption,"[7]; Cycle 1, Target RH 40.0%",7.14%
same,Change In Mass (%) Hysteresis,"[7]; Cycle 1, Target RH 40.0%",4.91%
same,Change In Mass (%) Sorption,"[7]; Cycle 1, Target RH 40.0%",2.22%
same,Change In Mass (%) Desorption,"[7]; Cycle 1, Target RH 60.0%",9.78%
same,Change In Mass (%) Hysteresis,"[7]; Cycle 1, Target RH 60.0%",6.09%
same,Change In Mass (%) Sorption,"[7]; Cycle 1, Target RH 60.0%",3.69%
same,Change In Mass (%) Desorption,"[7]; Cycle 1, Target RH 80.0%",16.92%
same,Change In Mass (%) Hysteresis,"[7]; Cycle 1, Target RH 80.0%",−0.87%
same,Change In Mass (%) Sorption,"[7]; Cycle 1, Target RH 80.0%",17.79%
same,Change In Mass (%) Desorption,"[7]; Cycle 1, Target RH 90.0%",26.07%
same,Change In Mass (%) Hysteresis,"[7]; Cycle 1, Target RH 90.0%",−0.59%
same,Change In Mass (%) Sorption,"[7]; Cycle 1, Target RH 90.0%",26.66%
same,Change In Mass (%) Desorption,"[7]; Cycle 1, Target RH 95.0%",34.13%
same,Change In Mass (%) Sorption,"[7]; Cycle 1, Target RH 95.0%",34.13%
same,Change In Mass (%) Desorption,"[7]; Cycle 2, Target RH 0.0%",0.34%
same,Change In Mass (%) Sorption,"[7]; Cycle 2, Target RH 0.0%",0.35%
same,Change In Mass (%) Desorption,"[7]; Cycle 2, Target RH 10.0%",3.17%
same,Change In Mass (%) Hysteresis,"[7]; Cycle 2, Target RH 10.0%",2.48%
same,Change In Mass (%) Sorption,"[7]; Cycle 2, Target RH 10.0%",0.69%
same,Change In Mass (%) Desorption,"[7]; Cycle 2, Target RH 20.0%",4.97%
same,Change In Mass (%) Hysteresis,"[7]; Cycle 2, Target RH 20.0%",3.65%
same,Change In Mass (%) Sorption,"[7]; Cycle 2, Target RH 20.0%",1.32%
same,Change In Mass (%) Desorption,"[7]; Cycle 2, Target RH 40.0%",6.78%
same,Change In Mass (%) Hysteresis,"[7]; Cycle 2, Target RH 40.0%",4.11%
same,Change In Mass (%) Sorption,"[7]; Cycle 2, Target RH 40.0%",2.67%
same,Change In Mass (%) Desorption,"[7]; Cycle 2, Target RH 60.0%",9.41%
same,Change In Mass (%) Hysteresis,"[7]; Cycle 2, Target RH 60.0%",4.84%
same,Change In Mass (%) Sorption,"[7]; Cycle 2, Target RH 60.0%",4.57%
same,Change In Mass (%) Desorption,"[7]; Cycle 2, Target RH 80.0%",16.37%
same,Change In Mass (%) Hysteresis,"[7]; Cycle 2, Target RH 80.0%",2.94%
same,Change In Mass (%) Sorption,"[7]; Cycle 2, Target RH 80.0%",13.43%
same,Change In Mass (%) Desorption,"[7]; Cycle 2, Target RH 90.0%",25.32%
same,Change In Mass (%) Hysteresis,"[7]; Cycle 2, Target RH 90.0%",1.41%
same,Change In Mass (%) Sorption,"[7]; Cycle 2, Target RH 90.0%",23.91%
same,Change In Mass (%) Desorption,"[7]; Cycle 2, Target RH 95.0%",32.86%
same,Change In Mass (%) Sorption,"[7]; Cycle 2, Target RH 95.0%",32.86%
same,hygroscopicity (absorption or adsorption of water molecules from the surrounding environment),[7],hygroscopic
"COC(=O)[C@H](Cc1cccc(C(=N)N)c1)[C@@H](C)NC(=O)c1ccc(-c2cc[n+]([O-])cc2)cc1.O=C(O)c1ccccc1 [benzoic acid salt of methyl(2R,3R)-2-{3-[amino(imino)methyl]benzyl}-3-{[4-(1-oxidopyridin-4-yl)benzoyl]amino}butanoate]",Change In Mass (%) Desorption,"[7]; Cycle 1, Target RH 0.0%",−0.035%
same,Change In Mass (%) Sorption,"[7]; Cycle 1, Target RH 0.0%",0.000%
same,Change In Mass (%) Desorption,"[7]; Cycle 1, Target RH 10.0%",0.215%
same,Change In Mass (%) Hysteresis,"[7]; Cycle 1, Target RH 10.0%",0.119%
same,Change In Mass (%) Sorption,"[7]; Cycle 1, Target RH 10.0%",0.096%
same,Change In Mass (%) Desorption,"[7]; Cycle 1, Target RH 20.0%",0.326%
same,Change In Mass (%) Hysteresis,"[7]; Cycle 1, Target RH 20.0%",0.146%
same,Change In Mass (%) Sorption,"[7]; Cycle 1, Target RH 20.0%",0.180%
same,Change In Mass (%) Desorption,"[7]; Cycle 1, Target RH 40.0%",0.534%
same,Change In Mass (%) Hysteresis,"[7]; Cycle 1, Target RH 40.0%",0.172%
same,Change In Mass (%) Sorption,"[7]; Cycle 1, Target RH 40.0%",0.363%
same,Change In Mass (%) Desorption,"[7]; Cycle 1, Target RH 60.0%",0.810%
same,Change In Mass (%) Hysteresis,"[7]; Cycle 1, Target RH 60.0%",0.214%
same,Change In Mass (%) Sorption,"[7]; Cycle 1, Target RH 60.0%",0.596%
same,Change In Mass (%) Desorption,"[7]; Cycle 1, Target RH 80.0%",1.300%
same,Change In Mass (%) Hysteresis,"[7]; Cycle 1, Target RH 80.0%",0.374%
same,Change In Mass (%) Sorption,"[7]; Cycle 1, Target RH 80.0%",0.926%
same,Change In Mass (%) Desorption,"[7]; Cycle 1, Target RH 90.0%",1.697%
same,Change In Mass (%) Hysteresis,"[7]; Cycle 1, Target RH 90.0%",0.290%
same,Change In Mass (%) Sorption,"[7]; Cycle 1, Target RH 90.0%",1.408%
same,Change In Mass (%) Desorption,"[7]; Cycle 1, Target RH 95.0%",2.031%
same,Change In Mass (%) Sorption,"[7]; Cycle 1, Target RH 95.0%",2.031%
same,Change In Mass (%) Desorption,"[7]; Cycle 2, Target RH 0.0%",−0.056%
same,Change In Mass (%) Sorption,"[7]; Cycle 2, Target RH 0.0%",−0.035%
same,Change In Mass (%) Desorption,"[7]; Cycle 2, Target RH 10.0%",0.198%
same,Change In Mass (%) Hysteresis,"[7]; Cycle 2, Target RH 10.0%",0.089%
same,Change In Mass (%) Sorption,"[7]; Cycle 2, Target RH 10.0%",0.109%
same,Change In Mass (%) Desorption,"[7]; Cycle 2, Target RH 20.0%",0.310%
same,Change In Mass (%) Hysteresis,"[7]; Cycle 2, Target RH 20.0%",0.084%
same,Change In Mass (%) Sorption,"[7]; Cycle 2, Target RH 20.0%",0.226%
same,Change In Mass (%) Desorption,"[7]; Cycle 2, Target RH 40.0%",0.523%
same,Change In Mass (%) Hysteresis,"[7]; Cycle 2, Target RH 40.0%",0.062%
same,Change In Mass (%) Sorption,"[7]; Cycle 2, Target RH 40.0%",0.461%
same,Change In Mass (%) Desorption,"[7]; Cycle 2, Target RH 60.0%",0.800%
same,Change In Mass (%) Hysteresis,"[7]; Cycle 2, Target RH 60.0%",0.058%
same,Change In Mass (%) Sorption,"[7]; Cycle 2, Target RH 60.0%",0.742%
same,Change In Mass (%) Desorption,"[7]; Cycle 2, Target RH 80.0%",1.299%
same,Change In Mass (%) Hysteresis,"[7]; Cycle 2, Target RH 80.0%",0.058%
same,Change In Mass (%) Sorption,"[7]; Cycle 2, Target RH 80.0%",1.241%
same,Change In Mass (%) Desorption,"[7]; Cycle 2, Target RH 90.0%",1.687%
same,Change In Mass (%) Hysteresis,"[7]; Cycle 2, Target RH 90.0%",0.071%
same,Change In Mass (%) Sorption,"[7]; Cycle 2, Target RH 90.0%",1.616%
same,Change In Mass (%) Desorption,"[7]; Cycle 2, Target RH 95.0%",1.999%
same,Change In Mass (%) Sorption,"[7]; Cycle 2, Target RH 95.0%",1.999%
same,water uptake (DVS),[7]; at 80% RH,1.1%
same,water uptake (DVS),[7]; at 95% RH,2.0%
same,hygroscopicity (absorption or adsorption of water molecules from the surrounding environment),[7],favorable reduced absorption or adsorption of water molecules
